The values that follow come from paper PMC3777193, “Diaryl- and triaryl-pyrrole derivatives: inhibitors of the MDM2–p53 and MDMX–p53 protein–protein interactions” (Medchemcomm, 2013).

SMILES strings stand for the structures. Read-outs that look alike come from different tables or passages of the source.

In test [1] the test system is SN40R2. The test is described as follows: Growth inhibitory activity, SN40R2. The conditions noted are these: read-out: GI50 SN40R2.
Method: (§2) Growth inhibitory activity was determined for selected pyrroles in a panel of cell lines with defined MDM2, MDMX and p53 status (Table 5).
Test [2] deals with A2780 cells. The test is classed as cell-based. The settings on record: A2780 (p53wt), 0.1, 0.2 and 5 μM, 4 h.
Test [3] has as its target T1, MDMX–p53 (Homo sapiens, UniProt O15151).
T1 construct: host or cells: in vitro coupled T7 transcription and rabbit reticulocyte lysate translation
T1 sequence (O15151 1-490): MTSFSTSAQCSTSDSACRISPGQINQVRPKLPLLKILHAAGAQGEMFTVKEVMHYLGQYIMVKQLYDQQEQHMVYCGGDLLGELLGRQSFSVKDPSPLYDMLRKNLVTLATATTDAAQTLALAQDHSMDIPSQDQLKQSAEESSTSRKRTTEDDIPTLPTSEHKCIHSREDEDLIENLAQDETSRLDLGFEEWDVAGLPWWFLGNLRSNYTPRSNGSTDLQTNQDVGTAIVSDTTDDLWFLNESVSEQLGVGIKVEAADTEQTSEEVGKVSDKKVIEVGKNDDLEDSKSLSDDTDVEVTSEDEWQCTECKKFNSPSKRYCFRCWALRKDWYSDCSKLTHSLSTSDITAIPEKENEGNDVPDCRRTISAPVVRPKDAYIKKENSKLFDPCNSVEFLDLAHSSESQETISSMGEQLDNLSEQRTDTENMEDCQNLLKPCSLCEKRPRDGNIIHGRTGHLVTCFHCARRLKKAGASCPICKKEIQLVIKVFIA
Nature of the test: MDMX–p53 ELISA binding assay. The settings on record: read-out: MDMX IC50. In general terms: ELISA stands for enzyme-linked immunosorbent assay.

Test [4] has as its target MDM2–p53 (Homo sapiens, UniProt Q00987). The test is described as follows: MDM2–p53 ELISA protein–protein binding assay.
In test [5] the test system is SJSA-1. The test is described as follows: Growth inhibitory activity, SJSA-1. The conditions noted are these: Homo sapiens, SJSA-1, read-out: GI50 SJSA-1.
Method: as §2
Test [6] has as its system MRK-NU-1. The test is described as follows: Growth inhibitory activity, MRK-NU-1. The conditions noted are these: Homo sapiens, MRK-nu-1, read-out: GI50 MRK-NU-1.
Method: as §2
Test [7] deals with SJSA-1 cells. The test is classed as cell-based. The conditions noted are these: SJSA-1 (MDM2 amplified, p53wt), 5 μM, 4 h.
In test [8] the test system is A2780CP70 cells. The test is classed as cell-based. The conditions noted are these: A2780 CP70 (p53 mutant), 0.1, 0.2 and 5 μM, 4 h.
Test [9] deals with MDM2. The conditions noted are these: read-out: MDM2–p53 IC50; cited from earlier work.
The subject of test [10] is HCT116 p53(-/-). The test is described as follows: Growth inhibitory activity, HCT116 p53(-/-) (Table S3). The test is classed as cell-based. The conditions noted are these: Homo sapiens, HCT-116, read-out: GI50 HCT116 p53(-/-). From the text: (§1) (2 pictures or pasted objects on this page, not shown here)
The test system of test [11] is HCT116. Nature of the test: Growth inhibitory activity, HCT116 (Table S3). The test is classed as cell-based. The conditions noted are these: Homo sapiens, HCT-116, read-out: GI50 HCT116.
Text: as §1

Test [12] relates to A2780-CP70. Nature of the test: Growth inhibitory activity, A2780-CP70 (Table S3). The test is classed as cell-based. The settings on record: A2780/CP70, read-out: GI50 A2780-CP70.
Text: as §1

Test [13] can be described thus: Growth inhibitory activity, A2708 (Table S3). The test is classed as cell-based. The conditions noted are these: read-out: GI50 A2708.
Text: as §1

MDM2–p53, sequence (Q00987 whole entry): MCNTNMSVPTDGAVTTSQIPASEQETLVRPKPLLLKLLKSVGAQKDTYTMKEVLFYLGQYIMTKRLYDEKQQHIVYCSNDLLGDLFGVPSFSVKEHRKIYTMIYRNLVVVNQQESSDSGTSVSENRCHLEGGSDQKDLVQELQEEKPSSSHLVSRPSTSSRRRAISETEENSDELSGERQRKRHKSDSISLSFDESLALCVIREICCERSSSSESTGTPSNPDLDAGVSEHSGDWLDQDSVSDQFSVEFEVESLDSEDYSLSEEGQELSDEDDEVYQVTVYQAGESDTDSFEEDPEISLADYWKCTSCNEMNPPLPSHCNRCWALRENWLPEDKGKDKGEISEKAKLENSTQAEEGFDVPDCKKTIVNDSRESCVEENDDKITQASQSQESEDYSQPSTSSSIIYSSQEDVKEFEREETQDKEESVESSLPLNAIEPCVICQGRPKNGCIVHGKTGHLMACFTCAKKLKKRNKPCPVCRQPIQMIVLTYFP

For `O=C1NC(=S)NC(=O)C1=Cc1cc(-c2ccccc2)n(-c2ccc(Cl)cc2)c1-c1ccccc1` [Compound 4c, 5-((1-(4-chlorophenyl)-2,5-diphenyl-1H-pyrrol-3-yl)methylene)-2-thioxodihydropyrimidine-4,6(1H,5H)-dione], the GI50 in test [1] is 2.8 ± 0.6 µM; in test [5] it was 2.3 ± 0.2 µM; in test [6], 2.3 ± 0.3 µM. For the same compound, in test [2], the “induction of MDM2 and p21 (Western blot)” value is recorded as “observed”. Further, the values for the IC50 in [3], in [4] and in [4] (read-out: MDM2 IC50) were 4.2 ± 1.2 µM, 0.12 ± 0.02 µM and 0.11 ± 0.03 µM, respectively. In addition, the “fold more potent than the comparable 2,5-dimethyl analogues (4a, 4b)” value in test [4] is 5–10 fold. For the same compound, the entries for the “induction of MDM2, p53, and p21 (Western blot)” value (shortened to “induction of MDM2, p53, and p21”) in [7] and in test [8] were “clearly visible” and “no induction”, respectively.
As for `O=C1NC(=S)N(c2ccccc2)C(=O)/C1=C/c1cc(-c2ccccc2)n(-c2ccc(Cl)cc2)c1-c1ccccc1` [Compound 4d], in test [2], the “induction of MDM2 and p21 (Western blot)” value is “observed”. The “fold more potent than the comparable 2,5-dimethyl analogues (4a, 4b)” value in test [4] is listed as 5–10 fold. Also, the IC50 (commonly the concentration that inhibits the measured activity by half) in test [4] (read-out: MDM2 IC50) came to 0.23 ± 0.044 µM. For the same compound, the “induction of MDM2, p53, and p21” value in test [7] was “clearly visible”; in test [8] it was “no induction”.
As for `CCOc1cc(C(C)(C)C)ccc1C1=N[C@@](C)(c2ccc(Cl)cc2)[C@@](C)(c2ccc(Cl)cc2)N1C(=O)N1CCN(CCCS(C)(=O)=O)CC1` [RG-7112], the IC50 in test [9] was 0.012 µM.
With `Cc1cc(C=C2C(=O)NC(=S)NC2=O)c(C)n1-c1sc2c(c1C#N)CCCC2` [Compound 3, 2-(3-((4,6-dioxo-2-thioxotetrahydropyrimidin-5(2H)-ylidene)methyl)-2,5-dimethyl-1H-pyrrol-1-yl)-4,5,6,7-tetrahydrobenzo[b]thiophene-3-carbonitrile], the GI50 came out at 7.7 ± 0.1 µM in test [10]; 7.8 ± 0.2 µM in test [11]; 3.9 ± 0.1 µM in [12]; 4.4 ± 0.1 µM in test [5]; 3.9 ± 0.1 µM in test [13]. In addition, in [4], the IC50 came to 12.3 µM. Also, the “induction of MDM2, p53, and p21” value was “clearly visible” in [7] and “no induction” in [8].
